Legend:
G4 DNA (Pu22) = assay: Isothermal titration calorimetry (ITC), reverse titration; design: species or system human; conditions: G4 DNA titrated to ligand; 19 °C; one-site binding model
Procedure: Unfortunately, this was only possible using reverse titration, adding G4 DNA to the ligand, and a direct comparison to the MST binding affinities, which were performed by titrating the ligand to the G4, can thus not be performed. […] The reason why 5 is more efficient in stabilizing G4 DNA could instead be linked to the entropic penalty (−TΔS), which is less for 5 (1.85 kcal/mol) compared to 27 (3.2 kcal/mol).
ITC experiments were performed using a MicroCal ITC200 instrument (GE Healthcare). A buffer containing 10 mM potassium phosphate and 100 mM KCl of pH 7.4 was prepared. The sample cell was filled with a 20 μM ligand, and the syringe with 120 μM prefolded G4 DNA. […] The data was analyzed in MICROCAL PEAQ-ITC analysis software using a one-site binding mode. […]
The following settings were applied: temperature 19 °C, reference power 7 μcal/sec, initial delay 300 sec, stirring speed 1000 RPM, spacing 120 sec, filter 5 sec, first injection 0.5 μL for 1 sec then 2 μL for 4 sec for the subsequent injections, and high-feedback mode. The data was analyzed in MICROCAL PEAQ-ITC analysis software using a one-site binding mode.
Figure S20. Binding curves with their associated ΔG-, ΔH-, and -TΔS-values for compounds 5 and 27 for G4 DNA (Pu22) measured by ITC with a one-site binding model. […]
structure. […] Excitation sculpting was used in the 1D 1H experiments, and 256 scans were recorded. […]

[1] = system: template not forming a G4 structure (PEPu24T mut); assay: Taq polymerase stop (primer extension) assay, non-G4 template; type: biochemical
Excerpt: To challenge all the synthesized compounds (2–11 and 25–29) in a more intricate context, we conducted a Taq polymerase stop assay to evaluate their capacity to impede DNA synthesis through G4 stabilization. In this assay, we compared the progress of the Taq DNA polymerase along two distinct DNA templates: one with a G4 structure (Figure 5) and another serving as a non-G4 control (Figure S21). If an external species (e.g., G4 ligand) binds and stabilizes the G4 structure, the polymerase will be partially halted. The extent of this DNA polymerase stalling is dependent on the ability of the compound to stabilize the G4 on the DNA template. The increased G4 stabilization can be detected as a reduction in the amount of newly synthesized DNA that has reached the end of the DNA template (full-length/end-product). Analysis of these shorter terminated DNA products will give information about the precise location of the DNA polymerase stalling with a single nucleotide resolution. If the ligand imposes little to no stabilization or binding, the G4 is readily resolved by the DNA polymerase, and no difference in the amount of DNA end-product can therefore be expected upon the addition of the compound. […]
The images were quantified using ImageJ 1.53e software and the percentage of full-length product compared to a sample without compound was calculated. […]

Kd (G4 DNA (Pu22)) [nM]	concentration at which an effect on the Taq polymerase was observed in the absence of a G4 structure [1] [µM]	Compound
880	> 4	Cc1cc(C)c2nc(Nc3nc(C)cc(NCCCN(C)C)n3)nc(C)c2c1 [Compound 5, N4-(3-(Dimethylamino)propyl)-6-methyl-N2-(4,6,8-trimethylquinazolin-2-yl)pyrimidine-2,4-diamine]
1040	–	Cc1cc(C)c2nc(Nc3nc(C)cc(C)n3)nc(C)c2c1 [Compound 27, N-(4,6-Dimethylpyrimidin-2-yl)-4,6,8-trimethylquinazolin-2-amine]

From PMC10860144, “Exploring the Dispersion and Electrostatic Components in Arene–Arene Interactions between Ligands and G4 DNA to Develop G4-Ligands” (Journal of Medicinal Chemistry, 2024)
